Where two headings read alike, the source gives them in different places.
What was measured:
[1] = system: Human non-small cell lung cancer (NSCLC) cell line H1703; assay: H1703 non-small cell lung cancer (NSCLC) xenograft model: tumor volume and body weight; format: in vivo, SCID mice; details: day 38
Protocol: Human non-small cell lung cancer (NSCLC) cell line H1703 was used as the tumor model and was purchased from ATCC (Manassas, VA; Cat. No. CRL-5889).
Docetaxel was purchased from Toronto Research Chemicals (North York, Ontario, Canada; cat. No. D494420) and formulated in H2O containing 5% Tween 80 and 5% glucose. Docetaxel was administered i.p. at 25 mg/kg (equivalent to about 75 mg/m^2 in a human) once every three weeks for two doses. In combination groups, FGFR1-ECD.339-Fc and docetaxel were either given concurrently or sequentially with FGFR1-ECD.339-Fc given one day before docetaxel or vice versa. Human albumin was purchased from Grifols USA (Los Angeles, CA; Cat. No. NDC 61953-0002-1), formulated in PBS at 3 mg/mL and was used as negative control at 300 µg/100 µL/mouse (15 mg/kg). Table 2: Dosing Schedule
The tumor volume was measured by external caliper to determine the greatest longitudinal diameter (length) and the greatest transverse diameter (width). The tumor volume was then calculated using the following formula: Tumorvolume(mm^3) = (length × width^2)/2 [formula]
Table 3. Tumor volume analysis on day 38
Table 4. Analysis of fractional tumor volumea on day 38

[2] = system: A549 cells; assay: A549 non-small cell lung cancer (NSCLC) xenograft model: tumor volume and body weight; details: for Fractional tumor volume (FTV), agent alone: day 32
[3] = system: Squamous cell lung cancer cell line NCI-H520; details: for Fractional tumor volume (FTV), agent alone / Tumor growth inhibition (%) / Mean Tumor volume mm^3(±SD): day 49; for Tumor growth inhibition (%): alone or with FGFR1-ECD.339-Fc 15 mg/kg; for Mean Tumor volume mm^3(±SD): alone or with FGFR1-ECD.339-Fc 15 mg/kg i.p. 2x/wk
Protocol: Six to eight week old female SCID mice were purchased from Charles River Laboratories (Wilmington, MA) and were acclimated for 1 week before the start of the study. […] The cells were cultured for three to four passages in RPMI+10% FBS + 1% L-glutamine at 37°C in a humidified atmosphere with 5% CO2. When the cultured cells reached 85-90% confluence, cells were harvested and resuspended in cold Ca^2+ and Mg^2+ free PBS containing 50% Matrigel at 3.5 x10^7 cells/ml. The cells were implanted subcutaneously over the right flank of the mice at 3.5x10^6 cells/100µl/mouse. One day after tumor implantation, mice were randomized according to body weight at 10 mice per group. Dosing for all groups began one day post tumor implantation.
FGFR1-ECD.339-Fc was formulated in PBS at 3 mg/ml and administered intraperitoneally (i.p.) at 15 mg/kg (300 µg/100 µl/mouse) twice a week for six weeks. […] In combination groups, FGFR1-ECD.339-Fc and pemetrexed were administered on the same schedule as when given as single agents, and were administered concurrently on days 1, 4, 8, and 11.
The tumor volume and body weight of the mice were monitored twice a week throughout study.
The mice were euthanized by isoflurane inhalation and cervical dislocation.
The tumor volume of each group of mice on day 49 was analyzed by one-way ANOVA followed by Tukey's test.

[4] = FGFR1-ECD.339-Fc 15 mg/kg i.p. twice a week, docetaxel 25 mg/kg i.p. once every three weeks for two doses
[5] = pemetrexed 62.5 mg/kg i.p. QD x 5 x 2 cycles
[6] = pemetrexed 125 mg/kg i.p. QD x 5 x 2 cycles
[7] = pemetrexed 250 mg/kg i.p. (only first five doses given)

CC(=O)O[C@@]12CO[C@@H]1C[C@H](O)[C@@]1(C)C(=O)[C@H](O)C3=C(C)[C@@H](OC(=O)[C@H](O)[C@@H](NC(=O)OC(C)(C)C)c4ccccc4)C[C@@](O)([C@@H](OC(=O)c4ccccc4)[C@H]21)C3(C)C [Docetaxel, 1,7β,10β-trihydroxy-9-oxo-5β,20-epoxytax-11-ene-2α,4,13α-triyl 4-acetate 2-benzoate 13-{(2R,3S)-3-[(tert-butoxycarbonyl)amino]-2-hydroxy-3-phenylpropanoate}]
Mean Tumor volume mm^3(±SD) [1, 4]: 209 (±303) mm^3 | Tumor growth inhibition (%) [1, 4]: 74% | Fractional tumor volume (FTV), agent alone ([1]; FGFR1-ECD.339-Fc 15 mg/kg, docetaxel 25 mg/kg, FTV = mean TV treated / mean TV control): 0.25 | Fractional tumor volume (FTV), agent alone ([2]; docetaxel 3 mg/kg i.p. twice per week alone): 0.79 | Fractional tumor volume (FTV), agent alone ([2]; docetaxel 10 mg/kg i.p. twice per week alone): 0.58

Nc1nc2[nH]cc(CCc3ccc(C(=O)N[C@@H](CCC(=O)O)C(=O)O)cc3)c2c(=O)[nH]1 [Pemetrexed, (S)-2-[4-[2-(4-amino-2-oxo-3,5,7-triazabicyclo[4.3.0]nona-3,8,10-trien-9-yl)ethyl]benzoyl] aminopentanedioic acid]
Fractional tumor volume (FTV), agent alone ([3]; pemetrexed 62.5 mg/kg alone): 0.59 | Tumor growth inhibition (%) [3, 5]: 40% | Mean Tumor volume mm^3(±SD) [3, 5]: 544.7 (±341.5) mm^3 | Fractional tumor volume (FTV), agent alone ([3]; pemetrexed 125 mg/kg alone): 0.75 | Tumor growth inhibition (%) [3, 6]: 24% | Mean Tumor volume mm^3(±SD) [3, 6]: 689.5 (±328.7) mm^3 | Fractional tumor volume (FTV), agent alone ([3]; pemetrexed 250 mg/kg alone): 1.00 | Tumor growth inhibition (%) [3, 7]: 1% | Mean Tumor volume mm^3(±SD) [3, 7]: 926.6 (±339.9) mm^3 | tumor inhibition over the course of the study ([3]; highest dose of pemetrexed (250 mg/kg), alone or with FGFR1-ECD.339-Fc): did not appear to inhibit tumor growth

CC[C@]1(O)C[C@H]2CN(CCc3c([nH]c4ccccc34)[C@@](C(=O)OC)(c3cc4c(cc3OC)N(C=O)[C@H]3[C@@](O)(C(=O)OC)[C@H](OC(C)=O)[C@]5(CC)C=CCN6CC[C@]43[C@@H]65)C2)C1 [Vincristine, methyl (1R,9R,10S,11R,12R,19R)-11-(acetyloxy)-12-ethyl-4-[(13S,15S,17S)-17-ethyl-17-hydroxy-13-(methoxycarbonyl)-1,11-diazatetracyclo[13.3.1.0^4,12.0^5,10]nonadeca-4(12),5,7,9-tetraen-13-yl]-8-formyl-10-hydroxy-5-methoxy-8,16-diazapentacyclo[10.6.1.0^1,9.0^2,7.0^16,19]nonadeca-2,4,6,13-tetraene-10-carboxylate]
weight loss ([2]; higher dose of vincristine (1.5 mg/kg), Figure 9C): lost weight | weight loss ([2]; lower dose of vincristine (1 mg/kg), data not shown): did not lose weight

Source: EP2640377B1, “FGFR1 EXTRACELLULAR DOMAIN COMBINATION THERAPIES” (Five Prime Therapeutics, Inc., priority 2010, dated 2012)
